{
  "source": "ChEMBL document CHEMBL1151451",
  "about": "(Antimicrob Agents Chemother, 2007)",
  "key": {"[1]": {"test": "AUC in human at 400 mg, po", "assay_type": "ADME, organism-based", "conditions": "plasma"}, "[2]": {"test": "AUC (0 to 24 hrs) in CD-1 mouse at […] administered through gavage", "assay_type": "ADME, organism-based", "conditions": "plasma, po"}, "[3]": {"test": "Drug level in CD-1 mouse serum at […] administered through gavage after 24 hrs", "assay_type": "ADME", "conditions": "po, read-out: Drug uptake"}, "[4]": {"system": "Mycobacterium tuberculosis", "assay_type": "functional"}, "[5]": {"system": "Mycobacterium tuberculosis", "assay_type": "functional", "remark": "listed apart in the source"}, "[6]": {"system": "Mycobacterium tuberculosis", "test": "Antimicrobial activity against avirulent Mycobacterium tuberculosis H37Ra"}, "[7]": {"system": "Mycobacterium tuberculosis", "test": "Antimicrobial activity against Mycobacterium tuberculosis H37Rv infected in CD-1 mouse lung at 75 mg/kg administered through gavage", "assay_type": "functional"}, "[8]": {"system": "Mycobacterium tuberculosis", "test": "Antimicrobial activity against Mycobacterium tuberculosis H37Rv infected in CD-1 mouse lung", "assay_type": "functional"}},
  "data": [
    {"compound": "COc1c(N2C[C@@H]3CCCN[C@@H]3C2)c(F)cc2c(=O)c(C(=O)O)cn(C3CC3)c12", "note": "[MOXIFLOXACIN]", "values": [
      {"measurement": "AUC", "setting": "[1]", "value": 26900, "unit": "ng·h/mL"},
      {"measurement": "AUC(0-t)", "setting": "[2]", "value": 27400, "unit": "ng·h/mL"},
      {"measurement": "concentration at 24 h", "setting": "[3]", "value": 8000, "unit": "ng/mL"},
      {"measurement": "log10cfu", "setting": "[4]", "value": 8.61},
      {"measurement": "log10cfu", "setting": "[5]", "value": 3.48},
      {"measurement": "MIC", "setting": "[6]", "value": 0.25, "unit": "µg/mL"},
      {"measurement": "log10cfu", "setting": "[7]", "value": 0.93},
      {"measurement": "log10cfu", "setting": "[8]", "value": 7.87}
    ]}
  ]
}
